# Measurements published in patent EP0437336B1, “Biophosphoryl hydrazines and their use as pesticides” (priority 1990, dated 1991).
# Where two headings read alike, the source gives them in different places.
# Experiments:
# [1] = system: Two-Spotted Spider Mite; experiment: Biological Method D: Foliar Insecticidal Activity Test, mite test; type: in vivo, Tetranychus urticae; parameters: key to LC50 TSM: I = inactive at concentration listed; conditions: for LC50 TSM: Method D foliar test, Two-Spotted Spider Mite; for TSM LC50: foliar spray, kill after twenty-four hours
# Procedure: (§1) Biological Method D: Foliar Insecticidal Activity Test
# (§2) In evaluating the foliar insecticidal activity of the compounds of this invention against insects and mites, the following test procedures were employed.
# (§3) Not all compounds were tested at each of the several concentrations stated above. Test concentrations of a compound were selected as those most likely to differentiate dose response of a particular compound toward a particular test insect.
# (§4) Initial evaluations were made on one or more of the following pests:
# For the mite test, infested bean (Phaseolus limensis var. Woods Prolific) leaf discs [3.18 cm (1.25") in diameter] containing about 50 mites were placed in a Petri dish lid on a moistened piece of cotton. The leaves were then sprayed to thorough wetness with the test solution using a rotating turntable, held for twenty-four hours and then the percentage killed was determined.
# (§5) The mortalities obtained in this manner were plotted on logarithmic probability paper.
# (§6) The rotating turntable consists of a fixed, continuously operating spray nozzle under which targets are rotated at a fixed speed and distance. If the target is a Petri dish (such as for the bean beetle, armyworm, mite, or aphid tests), the distance from the nozzle is 38.1 cm (15 inches). If the target is a Mason jar (such as for the boll weevil test), the distance from the nozzle is 17.8 cm (7 inches). The nozzle is located 8 inches from the rotating shaft. The targets on individual platforms revolve around the shaft at 1 revolution per 20 seconds but only a brief portion of this time occurs in the spray path. Targets pass only once under the nozzle and then are removed to drying hoods.
# (§7) The nozzle used is a 1/4 JCO Spraying Systems (Wheaton, Illinois) air atomizing nozzle equipped with a No. 2850 fluid cap and a No. 70 air cap. At the 68.95 x 10³ Pa gauge (10 psig) air pressure used and with liquid siphon feed, 1.89 ℓ/hr [0.5 GPH (gallons per hour)] are delivered in a round spray pattern with a 21 degree spray angle. Targets are misted with spray droplets to the point that the droplets coalesce to form a uniform thin film insufficient to drown test organisms.
# [2] = system: Boll Weevil; experiment: Biological Method D: Foliar Insecticidal Activity Test, boll weevil test; type: in vivo, Anthonomous grandis; parameters: key: I = inactive at concentration listed
# Procedure: as §1, §2, §3, §4
# (§8) For the boll weevil test, 10 adult weevils were placed in a 0.24 ℓ (0.5 pint) glass Mason jar containing a small cube of apple. The weevils were confined to the jar by fiberglass screen mesh secured by a screw-type rim cap. The jars were then sprayed with the test solution using a rotating turntable; directing the spray through the mesh into the jar. The percentage killed was determined after forty-eight and ninety six hours.
# as §5, §6, §7
# [3] = system: southern corn rootworm, Diabrotica undecimpunctata howardi; conditions: at-planting soil application
# [4] = system: Southern Armyworm; experiment: Biological Method D: Foliar Insecticidal Activity Test, Southern Armyworm test; type: in vivo, Spodoptera eridania; parameters: key: I = inactive at concentration listed
# Procedure: as §1, §2, §3, §4
# (§9) For the Mexican Bean Beetle and Southern armyworm tests, individual lima bean (Phaseolus limeniss var. Woods' Prolific) leaves were placed on moistened pieces of filter paper in Petri dishes. The leaves were then sprayed with the test solution using a rotating turntable and allowed to dry. The dishes were then infested with 10 third instar larvae of either the Mexican Been Beetle or the Southern Armyworm. The dishes were then covered. Percent mortality was determined for each species and spray concentration at 48 and 96 hours after treatment.
# as §5, §6, §7
# [5] = system: Green Peach Aphid; experiment: Biological Method D: Foliar Insecticidal Activity Test, aphid test; type: in vivo, Myzus persicae; parameters: key: I = inactive at concentration listed
# Procedure: as §1, §2, §3, §4
# (§10) For the aphid test, infested broccoli (Brassica oleracea italica var. DiCicco) leaves containing about 50 aphids were placed in a Petri dish lid on a moistened piece of cotton. The leaves were then sprayed to thorough wetness with the test solution using a rotating turntable, held for twenty-four hours and then the percentage killed was determined.
# as §5, §6, §7
# [6] = system: southern corn rootworm, Diabrotica undecimpunctata howardi; experiment: Biological Method A: Corn Rootworm Screening Test (treated non-aggressive soil); conditions: soil concentration giving 90% mortality, 10 days at 27°C
# [7] = system: Mexican Bean Beetle; experiment: Biological Method D: Foliar Insecticidal Activity Test, Mexican Bean Beetle test; type: in vivo, Epilachna varivestis; parameters: key to LC50 BB 96 hrs / LC50 BB 48 hrs.: I = inactive at concentration listed; conditions: for LC50: Epilachna varivestis
# Procedure: as §1, §2, §3, §4, §9, §5, §6, §7
# [8] = system: Southern Armyworm; experiment: Biological Method D: Foliar Insecticidal Activity Test, Southern Armyworm test; type: in vivo, Spodoptera eridania; conditions: for LC50: Spodoptera eridania, Method D foliar test, Southern Armyworm; for AW 48 hrs LC50: 48 hours after treatment
# Procedure: as §1, §2, §3, §4, §9, §5, §6, §7
# [9] = system: Green Peach Aphid; experiment: Biological Method D: Foliar Insecticidal Activity Test, aphid test; type: in vivo, Myzus persicae; conditions: foliar spray; kill after twenty-four hours
# Procedure: as §1, §2, §3, §4, §10, §5, §6, §7
# [10] = system: Boll Weevil; experiment: Biological Method D: Foliar Insecticidal Activity Test, boll weevil test; type: in vivo, Anthonomous grandis
# Procedure: as §1, §2, §3, §4, §8, §5, §6, §7
# [11] = Method D foliar test, Mexican Bean Beetle, 48 hrs
# [12] = Method D foliar test, Mexican Bean Beetle, 96 hrs
# [13] = 48 hrs, read-out: LC50 AW 48 hrs
# [14] = 96 hrs, read-out: LC50 AW 96 hrs
# [15] = Method D foliar test, Mexican Bean Beetle, 96 hrs, read-out: LC50 BB 96 hrs
# [16] = Method D foliar test, Boll Weevil
Compound,LC50 TSM [1],LC50 BW 48 hrs [2],LC50 BW 96 hrs [2],secondary aggressive Method C crw LC50 ([3]; rated 17 days post-infestation) [kg/ha],secondary aggressive Method C crw LC50 ([3]; value in brackets) [lb/acre],LC50 AW 48 hrs [4],LC50 AW 96 hrs [4],LC50 GPA [5],primary nonagressive Method A crw LC90 [6] [ppm],"LC50 BB 48 hrs. [7, 11]","LC50 BB 96 hrs [7, 12]","LC50 [8, 14] [µg/mL]",other results
"CCOP(=S)(NNP(=S)(OCC(C)(C)C)OCC(C)(C)C)OCC(C)(C)C (centres unmarked) [Compound 57, N-(O,O-dineopentylthiophosphoryl) N′-(O-ethyl O-neopentylthiophosphoryl) hydrazine]",I,I,I,0.5,0.45,I,I,I,1.1,I,I,,
CCOP(=S)(NNP(=S)(OCC)OC(C)(C(F)(F)F)C(F)(F)F)OCC(C)(C)C (centres unmarked) [Compound 48],I,I,I,0.63,0.56,,,I,0.40,I,I,150,"LC50 [8, 13]: 300 µg/mL"
CCOP(=S)(NNP(=S)(OC(C)C)OC(C)C)OCC(C)C (centres unmarked) [Compound 83],,,,,,,,,,,,,"TSM LC50 [1]: I; GPA LC50 [9]: I; LC50 ([7]; foliar spray, 48 hours after treatment, read-out: BB 48 hrs. LC50): 500 µg/mL; LC50 ([7]; foliar spray, 96 hours after treatment, read-out: BB 96 hrs LC50): 62 µg/mL; AW 48 hrs LC50 ([8]; foliar spray): I"
CCOP(=O)(NNP(=S)(OCC)OCC(C)(C)C)SC(C)CC (centres unmarked) [Compound 52],I,I,I,0.78,0.70,I,I,I,1.1,,,,"LC50 ([7]; Method D foliar test, Mexican Bean Beetle, 48 hrs, read-out: LC50 BB 48 hrs.): 500 µg/mL; LC50 [7, 15]: 150 µg/mL"
"CCCOP(=S)(NNP(=S)(OCC)OCC(C)(C)C)OCC (centres unmarked) [Compound 45, N-(O-ethyl O-propylthiophosphoryl) N′-(O-ethyl O-neopentylthiophosphoryl) hydrazine]",I,I,,0.37,0.33,I,,I,0.39,I,I,150,"LC50 BW 96 hrs [10, 16]: 150 ppm"
CCCCCCOP(=S)(NNP(=S)(OCCC)OCCC)OCC (centres unmarked) [Compound 80],,,,,,,,,1.1,,,,"TSM LC50 [1]: I; GPA LC50 [9]: I; AW 48 hrs LC50 ([8]; foliar spray): I; AW 96 hrs LC50 ([8]; foliar spray, 96 hours after treatment): I; BW 48 hrs LC50 ([10]; spray into jar, 48 hours): I; BW 96 hrs LC50 ([10]; spray into jar, 96 hours): I"
CCCOP(=S)(NNP(=O)(OCC)SC(C)CC)OCC (centres unmarked) [Compound 54],I,I,,,,,I,I,1.1,I,I,,"LC50 [8, 13]: 52 µg/mL"
CCOP(=S)(NNP(=S)(OC)OC)OCC(C)(C)C (centres unmarked) [Compound 44],I,,,0.56,0.50,I,,I,0.37,I,I,500,"LC50 BW 48 hrs ([10]; Method D foliar test, Boll Weevil, 48 hrs): 380 ppm; LC50 BW 96 hrs [10, 16]: 380 ppm"
CCCOP(=S)(NNP(=S)(OCC)OCC)OCC(C)(C)C (centres unmarked) [Compound 34],I,I,I,0.65,0.58,I,I,I,1.1,I,,,"LC50 [7, 15]: 52 µg/mL"
